Results published in patent publication US20110039793A1, “Application of ginsenoside Rb1 in preparing medicaments for treating dilated cardiomyopathy” (priority 2008, published 2011).

System: cTnT^R141W transgenic dilated cardiomyopathy mice model
Assay: Cardiac gene expression, RT-PCR method
Assay type: in vivo
Conditions: cardiac tissue, long-term administration
Method: Effects on some cardiac gene expression of the mice model with dilated cardiomyopathy after a long-term administration of ginsenoside Rb1 (RT-PCR method)
1) Pulverize the tissue in liquid nitrogen, and then add 1 ml Trizol liquid into the 50-100 mg tissue;
2) Place the grinded liquid at RT for 5 min, add 0.2 ml chloroform into the grinded liquid, tightly cap the centrifuge tube, and violently vortex the centrifuge tube for 15 sec;
3) Remove 0.5 ml the upper transparent liquid into a new centrifuge tube, add 0.5 ml isopropanol, placed at RT for 10 min, and centrifugate at 4° C., 12000 g for 10 min;
4) Remove the supernatant, add 1 ml 75% ethanol and centrifugate at 4° C., 7500 g for 5 min;
5) Carefully remove the supernatant, then dried at RT for 5-10 min, and then dissolved in DEPC-treated water.
2. RT-PCR (Reverse Transcription—Polymerase Chain Reaction)
Add the above mixture into the tube in step 1), then incubated at 42° C. for 2 min;
3) Add 1 μl SuperScript, II RT at 42° C. for 50 min;
4) Placed on ice for 15 min;
5) Add 1 μl RNase H, then incubated at 37° C. for 20 min;
6) PCR reaction system is shown as follow:
7) General conditions of PCR are shown as follow. Pre-denaturation at 94° C. for […], and extension at 72° C. for […] And the annealing temperature, the annealing time, the primer sequences and the cyclic numbers are shown in Table 2.
wherein, Gapdh serves as the loading control.

Structure (SMILES): CC(C)=CCC[C@](C)(O[C@@H]1O[C@H](CO[C@@H]2O[C@H](CO)[C@@H](O)[C@H](O)[C@H]2O)[C@@H](O)[C@H](O)[C@H]1O)[C@H]1CC[C@]2(C)[C@@H]1[C@H](O)C[C@@H]1[C@@]3(C)CC[C@H](O[C@@H]4O[C@H](CO)[C@@H](O)[C@H](O)[C@H]4O[C@@H]4O[C@H](CO)[C@@H](O)[C@H](O)[C@H]4O)C(C)(C)[C@@H]3CC[C@]12C [Rb1, ginsenoside Rb1]
- expression of Cx40: increase
- expression of E-cadherin: increase
- expression of Itga8: decrease
- expression of Itgbp: decrease
- expression of P-cadherin: increase
- expression of the fibroblast growth factor FGF (FGF2, 7, 8, 10): improve
